# Experimental data taken from patent US20150274719A1, “AMINO-SUBSTITUTED IMIDAZO[1,2-A]PYRIDINECARBOXAMIDES AND THEIR USE” (BAYER PHARMA AKTIENGESELLSCHAFT, priority 2012, published 2015).
# Molecular target: T1, recombinant guanylate cyclase reporter cell line (Rattus norvegicus, UniProt P19686+P20595)
# T1 construct: expressed in transfected cells; host or cells: recombinant reporter cell line
# T1 sequence (P19686 1-690): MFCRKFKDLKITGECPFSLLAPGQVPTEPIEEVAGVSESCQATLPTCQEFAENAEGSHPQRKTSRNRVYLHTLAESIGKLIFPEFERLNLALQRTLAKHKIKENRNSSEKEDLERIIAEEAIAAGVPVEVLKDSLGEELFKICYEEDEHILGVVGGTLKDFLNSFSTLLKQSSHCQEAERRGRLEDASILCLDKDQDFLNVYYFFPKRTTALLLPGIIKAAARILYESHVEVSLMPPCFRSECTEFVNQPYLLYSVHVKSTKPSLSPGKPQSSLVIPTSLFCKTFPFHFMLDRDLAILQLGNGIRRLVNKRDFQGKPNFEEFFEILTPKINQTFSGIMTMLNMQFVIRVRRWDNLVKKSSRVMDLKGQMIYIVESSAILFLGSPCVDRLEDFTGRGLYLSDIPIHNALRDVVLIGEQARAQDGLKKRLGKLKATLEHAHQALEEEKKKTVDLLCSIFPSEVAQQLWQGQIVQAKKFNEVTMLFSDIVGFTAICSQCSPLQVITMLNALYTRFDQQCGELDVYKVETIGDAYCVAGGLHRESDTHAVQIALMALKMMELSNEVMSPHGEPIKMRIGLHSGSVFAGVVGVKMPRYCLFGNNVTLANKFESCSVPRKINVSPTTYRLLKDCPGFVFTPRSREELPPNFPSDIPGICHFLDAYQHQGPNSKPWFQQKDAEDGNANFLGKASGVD
# T1 sequence (P20595 1-619): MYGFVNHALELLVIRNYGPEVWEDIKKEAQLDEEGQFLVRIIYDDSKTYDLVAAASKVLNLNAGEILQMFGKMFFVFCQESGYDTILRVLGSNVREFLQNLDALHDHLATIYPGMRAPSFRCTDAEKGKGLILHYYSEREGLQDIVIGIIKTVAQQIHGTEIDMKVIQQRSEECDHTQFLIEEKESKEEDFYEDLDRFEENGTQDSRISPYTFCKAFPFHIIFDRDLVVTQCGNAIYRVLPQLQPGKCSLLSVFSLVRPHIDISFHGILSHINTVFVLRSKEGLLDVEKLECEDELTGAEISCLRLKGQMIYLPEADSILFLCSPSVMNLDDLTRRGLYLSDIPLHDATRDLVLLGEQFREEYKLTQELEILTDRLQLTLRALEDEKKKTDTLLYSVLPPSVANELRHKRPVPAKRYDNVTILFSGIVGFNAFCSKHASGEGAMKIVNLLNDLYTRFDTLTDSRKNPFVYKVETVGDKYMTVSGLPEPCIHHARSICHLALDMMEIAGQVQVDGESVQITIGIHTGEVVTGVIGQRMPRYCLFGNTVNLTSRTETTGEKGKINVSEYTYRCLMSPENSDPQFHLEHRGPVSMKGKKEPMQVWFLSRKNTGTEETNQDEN
# Experiment: Action on recombinant guanylate cyclase reporter cell line
# Assay type: cell-based
# Conditions: in some cases mean values from individual determinations
# Method in brief: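 Compounds are tested on whole cells carrying a guanylate cyclase reporter construct. The lowest concentration giving an effect is recorded as the MEC.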
row,SMILES,MEC (minimal effective concentration) [µM]
1,"Cc1nc2c(OCc3c(F)cccc3F)cc(Cl)cn2c1C(=O)NCC1CCCCN1 (single isomer, unassigned; ent-6) [Example 191, ent-6-Chloro-8-[(2,6-difluorobenzyl)oxy]-2-methyl-N-(piperidin-2-ylmethyl)imidazo[1,2-a]-pyridine-3-carboxamide]",1.00
2,"Cc1nc2c(OCc3c(F)cccc3F)cccn2c1C(=O)NC1CCNc2ccccc21 (single isomer, unassigned; ent-8) [Example 52, ent-8-[(2,6-Difluorobenzyl)oxy]-2-methyl-N-(1,2,3,4-tetrahydroquinolin-4-yl)imidazo[1,2-a]-pyridine-3-carboxamide]",0.03
3,"Cc1nc2c(OCc3c(F)cccc3F)cccn2c1C(=O)NC1CNc2ccccc2C1 (single isomer, unassigned; ent-8) [Example 81, ent-8-[(2,6-Difluorobenzyl)oxy]-2-methyl-N-(1,2,3,4-tetrahydroquinolin-3-yl)imidazo[1,2-a]-pyridine-3-carboxamide]",1.00
4,"Cc1nc2c(OCc3c(F)cccc3F)cccn2c1C(=O)NC1CCNc2ccc(F)cc21 (single isomer, unassigned; ent-8) [Example 106, ent-8-[(2,6-difluorobenzyl)oxy]-N-(6-fluoro-1,2,3,4-tetrahydroquinolin-4-yl)-2-methylimidazo[1,2-a]pyridine-3-carboxamide]",0.03
5,"Cc1nc2c(OCc3c(F)cccc3F)cccn2c1C(=O)NC1CNCc2ccccc21 (single isomer, unassigned; ent-8) [Example 109, ent-8-[(2,6-difluorobenzyl)oxy]-2-methyl-N-(1,2,3,4-tetrahydroisoquinolin-4-yl)imidazo[1,2-a]pyridine-3-carboxamide]",1.00
6,"Cc1nc2c(OCc3c(F)cccc3F)cccn2c1C(=O)NC1CNCc2ccccc21 (single isomer, unassigned; ent-8) [Example 110, ent-8-[(2,6-difluorobenzyl)oxy]-2-methyl-N-(1,2,3,4-tetrahydroisoquinolin-4-yl)imidazo[1,2-a]pyridine-3-carboxamide]",0.30
7,"Cc1nc2c(OCc3c(F)cccc3F)cccn2c1C(=O)NC1CCNc2ccc(C(F)(F)F)cc21 (single isomer, unassigned; ent-8) [Example 111, ent-8-[(2,6-difluorobenzyl)oxy]-2-methyl-N-[6-(trifluoromethyl)-1,2,3,4-tetrahydroquinolin-4-yl]imidazo[1,2-a]pyridine-3-carboxamide]",1.00
8,"Cc1nc2c(OCc3c(F)cccc3F)cccn2c1C(=O)NCC(C)N1CCOCC1 (single isomer, unassigned; ent-8) [Example 180, ent-8-[(2,6-Difluorobenzyl)oxy]-2-methyl-N-[2-(morpholin-4-yl)propyl]imidazo[1,2-a]pyridine-3-carboxamide]",1.00
9,"Cc1nc2c(OCc3c(F)cccc3F)cccn2c1C(=O)NCC(C)N1CCOCC1 (single isomer, unassigned; ent-8) [Example 181, ent-8-[(2,6-Difluorobenzyl)oxy]-2-methyl-N-[2-(morpholin-4-yl)propyl]imidazo[1,2-a]pyridine-3-carboxamide]",1.00
10,"Cc1nc2c(OCc3c(F)cccc3F)cccn2c1C(=O)NC(CN1CCOCC1)c1ccccc1 (single isomer, unassigned; ent-8) [Example 182, ent-8-[(2,6-Difluorobenzyl)oxy]-2-methyl-N-[2-(morpholin-4-yl)-1-phenylethyl]imidazo[1,2-a]-pyridine-3-carboxamide]",3.00
11,"Cc1nc2c(OCc3c(F)cccc3F)cccn2c1C(=O)NC(CN1CCOCC1)c1ccccc1 (single isomer, unassigned; ent-8) [Example 183, ent-8-[(2,6-Difluorobenzyl)oxy]-2-methyl-N-[2-(morpholin-4-yl)-1-phenylethyl]imidazo[1,2-a]-pyridine-3-carboxamide]",1.00
12,"Cc1cc(OCc2c(F)cccc2F)c2nc(C)c(C(=O)NCC(C)N3CCOCC3)n2c1 (single isomer, unassigned; ent-8) [Example 187, ent-8-[(2,6-Difluorobenzyl)oxy]-2,6-dimethyl-N-[2-(morpholin-4-yl)propyl]imidazo[1,2-a]-pyridine-3-carboxamide]",0.30
13,"Cc1nc2c(OCc3c(F)cccc3F)cccn2c1C(=O)NCC(C(C)C)N(C)C (single isomer, unassigned; ent-8) [Example 188, ent-8-[(2,6-Difluorobenzyl)oxy]-N-[2-(dimethylamino)-3-methylbutyl]-2-methylimidazo[1,2-a]-pyridine-3-carboxamide]",1.00

# Now from value to compound:
row,MEC (minimal effective concentration) [µM],SMILES
1,1.00,"Cc1nc2c(OCc3c(F)cccc3F)cc(Cl)cn2c1C(=O)NCC1CCCCN1 (single isomer, unassigned; ent-6) [Example 190, ent-6-Chloro-8-[(2,6-difluorobenzyl)oxy]-2-methyl-N-(piperidin-2-ylmethyl)imidazo[1,2-a]-pyridine-3-carboxamide]"
2,0.30,"Cc1nc2c(OCc3c(F)cccc3F)cccn2c1C(=O)NC1CNc2ccccc21 (single isomer, unassigned; ent-8) [Example 47, ent-8-[(2,6-Difluorobenzyl)oxy]-N-(2,3-dihydro-1H-indol-3-yl)-2-methylimidazo[1,2-a]pyridine-3-carboxamide]"
3,0.30,"Cc1nc2c(OCc3c(F)cccc3F)cccn2c1C(=O)NC1CCNc2ccc(F)cc21 (single isomer, unassigned; ent-8) [Example 105, ent-8-[(2,6-difluorobenzyl)oxy]-N-(6-fluoro-1,2,3,4-tetrahydroquinolin-4-yl)-2-methylimidazo[1,2-a]pyridine-3-carboxamide]"
4,0.10,"Cc1nc2c(OCc3c(F)cccc3F)cccn2c1C(=O)NC1CCNc2ccc(C(F)(F)F)cc21 (single isomer, unassigned; ent-8) [Example 112, ent-8-[(2,6-difluorobenzyl)oxy]-2-methyl-N-[6-(trifluoromethyl)-1,2,3,4-tetrahydroquinolin-4-yl]imidazo[1,2-a]pyridine-3-carboxamide]"
5,0.30,"Cc1cc(OCc2c(F)cccc2F)c2nc(C)c(C(=O)NCC(C)N3CCOCC3)n2c1 (single isomer, unassigned; ent-8) [Example 186, ent-8-[(2,6-Difluorobenzyl)oxy]-2,6-dimethyl-N-[2-(morpholin-4-yl)propyl]imidazo[1,2-a]-pyridine-3-carboxamide]"
6,3.00,"Cc1nc2c(OCc3c(F)cccc3F)cccn2c1C(=O)NCC(C(C)C)N(C)C (single isomer, unassigned; ent-8) [Example 189, ent-8-[(2,6-Difluorobenzyl)oxy]-N-[2-(dimethylamino)-3-methylbutyl]-2-methylimidazo[1,2-a]-pyridine-3-carboxamide]"
7,0.30,"Cc1nc2c(OCc3c(F)cccc3F)cccn2c1C(=O)NC(CNCC(F)(F)F)c1ccc(F)c(F)c1 (single isomer, unassigned; ent-8) [Example 222, ent-8-[(2,6-Difluorobenzyl)oxy]-N-{1-(3,4-difluorophenyl)-2-[(2,2,2-trifluoroethyl)amino]ethyl}-2-methylimidazo[1,2-a]pyridine-3-carboxamide]"
8,0.30,"CCC1CC(NC(=O)c2c(C)nc3c(OCc4c(F)cccc4F)cc(C)cn23)c2nc(C(F)(F)F)ccc2N1 (single isomer, unassigned; ent-8) [Example 325, ent-8-[(2,6-Difluorobenzyl)oxy]-N-[2-ethyl-6-(trifluoromethyl)-1,2,3,4-tetrahydro-1,5-naphthyridin-4-yl]-2,6-dimethylimidazo[1,2-a]pyridine-3-carboxamide]"
